Assay [1] relates to response to colorectal distension. Briefly: partial restraint stress-induced hyperalgesia model. The assay is classed as in vivo, Wistar rats. As to conditions: oral 0.3 and 3.0 μg/kg; distending pressure 15 mm Hg; p<0.0001. As for the experimental part:
Five groups of female Wistar rats (weighing 200-250 g each), were surgically prepared for electromyography as described (Morteau et al. 1994 Dig Dis Sci 39:1239-48) and were used to evaluate the effects of SEQ ID NO:3 on colorectal sensitivity and compliance after a 2 hour partial restraint stress session. Partial restraint stress (PRS), a relatively mild stress, was induced as previously described (Morteau et al., 1994 Dig Dis Sci 39:1239-48). Female rats were lightly anesthetized with diethyl ether and their shoulders, upper forelimbs and thoracic trunk were wrapped in a confining harness of paper tape to restrict, but not prevent body movements. Control sham-stress animals were anesthitized but not wrapped. […] Electrical activity was recorded with an electroencephalograph (Mini VIII, Alvar, Paris, France) using a short time constant (0.03 sec.) to remove low-frequency signals (<3 Hz) and a paper speed of 3.6 cm/minute. […] Colonic pressure and balloon volume were continuously monitored on a potentiometric recorder (L6514, Linseis, Selb, Germany) with a paper speed of 1.0 cm/minute. The number of spike bursts, corresponding to abdominal contractions, was evaluated per 5-minute period. Colorectal volumes were determined as the maximal volume obtained for each stage of distension using the potentiometric recorder. […] The values were expressed as mean±SEM.

For assay [2], the system named is bowel habits. In words: seven-day oral dosing study of bowel habits in humans. The assay is classed as in vivo. On the procedure:
Seven daily doses of 30, 100, 300, or 1000 μg of chemically synthesized SEQ ID NO:3 were given to 48 healthy subjects. SEQ ID NO:3 or placebo (vehicle) was administered orally in 5.0 mL 50 mM phosphate buffer (pH 6.0) plus 3×20 mL water rinses and 175 mL water after at least a 10-hour fast. In each dosing group, 8 subjects were randomized to receive SEQ ID NO:3 and 4 subjects were randomized to receive placebo. […] The Mean Ease of Passage (FIG. 15d) of stools was tested for subjects treated with 30-1000 μg SEQ ID NO:3.

Assay [3] has as its system intestinal transit after abdominal surgery. Briefly: rat model of postoperative ileus. The assay is classed as in vivo, CD rats. As to conditions: oral 10 μg/kg, 20 minutes after charcoal meal. As for the experimental part: Female CD rats were used to test the effect of SEQ ID NO:3 on delayed transit induced by abdominal surgery and manual manipulation of the small intestine. Groups of at least nine rats underwent abdominal surgery under isoflurane anesthesia. Surgery consisted of laparotomy and 5 minutes of gentle manual intestinal massage. Following recovery from anesthesia, rats were dosed orally with either 10 μg/kg SEQ ID NO:3 or vehicle (20 mM Tris) in a volume of 300 μl. 1 hour after dosing, intestinal transit rate was measured. Animals were again dosed with 300 μl of the test article followed immediately by 500 μl of a charcoal meal (10% charcoal, 10% gum arabic in water). To calculate the distance of the small intestine traveled by the charcoal front, after 20 minutes, the total length of the intestine as well as the distance traveled from the stomach to the charcoal front were measured for each animal. Animals dosed with 10 μg/kg SEQ ID NO:3 experienced an increase in transit following abdominal surgery compared to animals dosed with vehicle alone (FIG. 16). Charcoal transit in SEQ ID NO:3 dosed animals was measured at 37.3+3.0% (mean±SEM) of the small intestine compared with vehicle at 24.7+1.4% (mean±SEM) of the small intestine.

Assay [4] has as its system bowel habits. Briefly: single oral dose study of bowel habits in humans. It counts as in vivo. As for the experimental part:
Single doses of 30, 100, 300, 1000 or 3000 μg of chemically synthesized SEQ ID NO:3 were given to 30 healthy males and postmenopausal females. At each dose level (100 μg was done twice) SEQ ID NO:3 or placebo (vehicle) was administered orally in 5.0 mL 50 mM phosphate buffer (pH 6.0) plus 3×20 mL water rinses and 175 mL water after at least a 10-hour fast. In each dosing group, subjects were randomized to receive either placebo (1 subject) or SEQ ID NO:3 (3-4 subjects). Bowel habits (including Bristol Stool Form Scale score (BSFS; FIG. 14a), stool frequency, and stool weight) were evaluated for each collected bowel movement 48 hours prior to dose and up to approximately 48 hours postdose.

Bridge positions count the residues as written; N and C are the ends. Peptide text beside a SMILES is read from it.

For `C[C@@H]1NC(=O)[C@@H]2CCCN2C(=O)[C@H](CC(N)=O)NC(=O)[C@@H]2CSSC[C@H](N)C(=O)N[C@H]3CSSC[C@H](NC1=O)C(=O)N[C@@H]([C@@H](C)O)C(=O)NCC(=O)N[C@H](C(=O)N[C@@H](Cc1ccc(O)cc1)C(=O)O)CSSC[C@H](NC(=O)[C@H](Cc1ccc(O)cc1)NC(=O)[C@H](CCC(=O)O)NC3=O)C(=O)N2` [SEQ ID NO:3] (H-CCEYCCNPACTGCY-OH; disulfide 1-6, 2-10, 5-13; N-terminus and C-terminus assumed), the “response to CRD after partial restraint stress” value in assay [1] is given as “reduced the response to CRD”. In addition, the “Mean Ease of Passage of stools, baseline versus treatment, versus placebo” value in the assay with bowel habits [2] (1000 μg dose group) is given as “greatest difference in baseline versus treatment values”. Besides, in the assay on bowel habits [2] (seven daily oral doses 30-1000 μg, higher doses), the “Mean Stool Weight” value is “increase in Mean Stool Weight”. For the same compound, the “Mean Stool Frequency (stools per week)” value with bowel habits [2] (seven daily oral doses 30-1000 μg, higher doses, healthy subjects) is given as “increase in Mean Stool Frequency score”. Moreover, the “Charcoal transit, of the small intestine (mean±SEM)” value in assay [3] was 37.3 ± 3.0%. Further, the “percent of subjects with a 2-point or greater increase in BSFS score” value with bowel habits [4] (1000 μg dose group, mean pre-dose compared to peak 48 hours post-dose) was “highest percent of subjects”. Besides, the “BSFS post-dose scores, relation to dose” value with bowel habits [4] (single oral dose 30-3000 μg) is “Higher BSFS post-dose scores correlated with a higher dose”. Further, the “maximum BSFS (Bristol Stool Form Scale) score” value in the assay with bowel habits [4] (single oral dose 30-3000 μg, healthy males and postmenopausal females) is reported as “increase in maximum BSFS score”.

The values above are taken from US20090253634A1, “Methods and Compositions for the Treatment of Gastrointestinal Disorders” (MICROBIA, INC., priority 2005, published 2009).
